Measurements from PubChem BioAssay AID1963846 (Molecular Pharmacology Branch, DTP, NCI, 2024).

Test system: 454973-116-R2-J3-PDC complex spheroid viability
Assay: Anticancer human tumor 454973-116-R2-J3-PDC patient-derived pancreatic carcinoma cell line growth inhibition [POLQ]
Conditions: for IC50: curve of first compound; for viability, T/C: stronger effect = lower value
How it was run: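 Complex spheroid viability model combining PDC tumour cells with endothelial (HUVEC) and MSC stromal cells. Novobiocin, ART-558 or RP6685 were tested singly and in combination with standard and investigational anticancer drugs. Each was titrated in half-log steps from near clinical Cmax, or from 10 microM where Cmax was unknown.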

[1] = second compound 0.0316 µM, first compound 0.0316 µM
[2] = second compound 0.0316 µM, first compound 0.1 µM
[3] = second compound 0.0316 µM, first compound 0.316 µM
[4] = second compound 0.0316 µM, first compound 1 µM
[5] = second compound 0.0316 µM, first compound 3.16 µM
[6] = second compound 0.0316 µM, first compound 10 µM
[7] = second compound 0.1 µM, first compound 0.0316 µM
[8] = second compound 0.1 µM, first compound 0.1 µM
[9] = second compound 0.1 µM, first compound 0.316 µM
[10] = second compound 0.1 µM, first compound 1 µM
[11] = second compound 0.1 µM, first compound 3.16 µM
[12] = second compound 0.1 µM, first compound 10 µM
[13] = second compound 0.316 µM, first compound 0.0316 µM
[14] = second compound 0.316 µM, first compound 0.1 µM
[15] = second compound 0.316 µM, first compound 0.316 µM
[16] = second compound 0.316 µM, first compound 1 µM
[17] = second compound 0.316 µM, first compound 3.16 µM
[18] = second compound 0.316 µM, first compound 10 µM
[19] = second compound 1 µM, first compound 0.0316 µM
[20] = second compound 1 µM, first compound 0.1 µM
[21] = second compound 1 µM, first compound 0.316 µM
[22] = second compound 1 µM, first compound 1 µM
[23] = second compound 1 µM, first compound 3.16 µM
[24] = second compound 1 µM, first compound 10 µM
[25] = second compound 3.16 µM, first compound 0.0316 µM
[26] = second compound 3.16 µM, first compound 0.1 µM
[27] = second compound 3.16 µM, first compound 0.316 µM
[28] = second compound 3.16 µM, first compound 1 µM
[29] = second compound 3.16 µM, first compound 3.16 µM
[30] = second compound 3.16 µM, first compound 10 µM
[31] = second compound 10 µM, first compound 0.0316 µM
[32] = second compound 10 µM, first compound 0.1 µM
[33] = second compound 10 µM, first compound 0.316 µM
[34] = second compound 10 µM, first compound 1 µM
[35] = second compound 10 µM, first compound 3.16 µM
[36] = second compound 10 µM, first compound 10 µM
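Note: spheroids exposed to drugs for seven days before measurement.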
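Throughout, for viability, T/C: percent viability relative to DMSO vehicle control wells taken as 100%.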

CC(=O)O[C@H]1C(=O)[C@@]2(C)[C@H]([C@H](OC(=O)c3ccccc3)[C@]3(O)C[C@H](OC(=O)[C@H](O)[C@@H](NC(=O)c4ccccc4)c4ccccc4)C(C)=C1C3(C)C)[C@]1(OC(C)=O)CO[C@@H]1C[C@@H]2O + COC1C(OC(N)=O)C(O)C(Oc2ccc3c(O)c(NC(=O)c4ccc(O)c(CC=C(C)C)c4)c(=O)oc3c2C)OC1(C)C
IC50 (second compound 0.0316 µM): < 9.49 nM | IC50 (second compound 0.1 µM): < 9.49 nM | IC50 (second compound 0.316 µM): < 9.49 nM | IC50 (second compound 1 µM): < 9.49 nM | IC50 (second compound 3.16 µM): < 9.49 nM | IC50 (second compound 10 µM): < 9.49 nM | viability, T/C (second compound 0.0316 µM, first compound 0.00949 µM): 11.9% | viability, T/C (second compound 0.0316 µM, first compound 0.03 µM): 7.88% | viability, T/C (second compound 0.0316 µM, first compound 0.0949 µM): 6.54% | viability, T/C (second compound 0.0316 µM, first compound 0.3 µM): 5.33% | viability, T/C (second compound 0.0316 µM, first compound 0.949 µM): 6.41% | viability, T/C (second compound 0.0316 µM, first compound 3 µM): 7.66% | viability, T/C (second compound 0.1 µM, first compound 0.00949 µM): 12.8% | viability, T/C (second compound 0.1 µM, first compound 0.03 µM): 5.37% | viability, T/C (second compound 0.1 µM, first compound 0.0949 µM): 5.19% | viability, T/C (second compound 0.1 µM, first compound 0.3 µM): 5.57% | viability, T/C (second compound 0.1 µM, first compound 0.949 µM): 5.27% | viability, T/C (second compound 0.1 µM, first compound 3 µM): 3.86% | viability, T/C (second compound 0.316 µM, first compound 0.00949 µM): 10.7% | viability, T/C (second compound 0.316 µM, first compound 0.03 µM): 5.28% | viability, T/C (second compound 0.316 µM, first compound 0.0949 µM): 6.4% | viability, T/C (second compound 0.316 µM, first compound 0.3 µM): 4.53% | viability, T/C (second compound 0.316 µM, first compound 0.949 µM): 6.27% | viability, T/C (second compound 0.316 µM, first compound 3 µM): 5.12% | viability, T/C (second compound 1 µM, first compound 0.00949 µM): 13.2% | viability, T/C (second compound 1 µM, first compound 0.03 µM): 5.82% | viability, T/C (second compound 1 µM, first compound 0.0949 µM): 6.61% | viability, T/C (second compound 1 µM, first compound 0.3 µM): 5.98% | viability, T/C (second compound 1 µM, first compound 0.949 µM): 5.03% | viability, T/C (second compound 1 µM, first compound 3 µM): 5.86% | viability, T/C (second compound 3.16 µM, first compound 0.00949 µM): 11.1% | viability, T/C (second compound 3.16 µM, first compound 0.03 µM): 7.33% | viability, T/C (second compound 3.16 µM, first compound 0.0949 µM): 4.63% | viability, T/C (second compound 3.16 µM, first compound 0.3 µM): 3.97% | viability, T/C (second compound 3.16 µM, first compound 0.949 µM): 3.87% | viability, T/C (second compound 3.16 µM, first compound 3 µM): 4.77% | viability, T/C (second compound 10 µM, first compound 0.00949 µM): 12.8% | viability, T/C (second compound 10 µM, first compound 0.03 µM): 4.79% | viability, T/C (second compound 10 µM, first compound 0.0949 µM): 7.63% | viability, T/C (second compound 10 µM, first compound 0.3 µM): 5.47% | viability, T/C (second compound 10 µM, first compound 0.949 µM): 3.92% | viability, T/C (second compound 10 µM, first compound 3 µM): 5.39%

CC1COCCN1c1cc(-c2ccnn2C)c2ccnc(-c3ccn[nH]3)c2n1 (stereo unspecified) + COC1C(OC(N)=O)C(O)C(Oc2ccc3c(O)c(NC(=O)c4ccc(O)c(CC=C(C)C)c4)c(=O)oc3c2C)OC1(C)C
IC50 (second compound 0.0316 µM): 205 nM | IC50 (second compound 0.1 µM): 217 nM | IC50 (second compound 0.316 µM): 209 nM | IC50 (second compound 1 µM): 220 nM | IC50 (second compound 3.16 µM): 223 nM | IC50 (second compound 10 µM): 198 nM | viability, T/C [1]: 97% | viability, T/C [2]: 71.8% | viability, T/C [3]: 38.5% | viability, T/C [4]: 19.2% | viability, T/C [5]: 22.8% | viability, T/C [6]: 25.9% | viability, T/C [7]: 97.3% | viability, T/C [8]: 75.7% | viability, T/C [9]: 38% | viability, T/C [10]: 21.9% | viability, T/C [11]: 20.1% | viability, T/C [12]: 23.9% | viability, T/C [13]: 97.8% | viability, T/C [14]: 77.2% | viability, T/C [15]: 35.4% | viability, T/C [16]: 21.2% | viability, T/C [17]: 23.2% | viability, T/C [18]: 29.6% | viability, T/C [19]: 103% | viability, T/C [20]: 79% | viability, T/C [21]: 37.8% | viability, T/C [22]: 18.8% | viability, T/C [23]: 23.2% | viability, T/C [24]: 26.6% | viability, T/C [25]: 100% | viability, T/C [26]: 77.9% | viability, T/C [27]: 39% | viability, T/C [28]: 20.4% | viability, T/C [29]: 26.1% | viability, T/C [30]: 27.9% | viability, T/C [31]: 105% | viability, T/C [32]: 70.8% | viability, T/C [33]: 38% | viability, T/C [34]: 16.7% | viability, T/C [35]: 25.9% | viability, T/C [36]: 33.7%

CC(C)n1c(=O)n(C)c2cnc3cc(F)c(-c4ccc(OCCCN5CCCCC5)nc4)cc3c21 + COC1C(OC(N)=O)C(O)C(Oc2ccc3c(O)c(NC(=O)c4ccc(O)c(CC=C(C)C)c4)c(=O)oc3c2C)OC1(C)C
IC50 (second compound 0.0316 µM): > 10000 nM | IC50 (second compound 0.1 µM): > 10000 nM | IC50 (second compound 0.316 µM): > 10000 nM | IC50 (second compound 1 µM): > 10000 nM | IC50 (second compound 3.16 µM): > 10000 nM | IC50 (second compound 10 µM): > 10000 nM | viability, T/C [1]: 99.5% | viability, T/C [2]: 108% | viability, T/C [3]: 114% | viability, T/C [4]: 110% | viability, T/C [5]: 111% | viability, T/C [6]: 85.9% | viability, T/C [7]: 107% | viability, T/C [8]: 112% | viability, T/C [9]: 108% | viability, T/C [10]: 114% | viability, T/C [11]: 93.7% | viability, T/C [12]: 95.6% | viability, T/C [13]: 115% | viability, T/C [14]: 113% | viability, T/C [15]: 113% | viability, T/C [16]: 116% | viability, T/C [17]: 105% | viability, T/C [18]: 88% | viability, T/C [19]: 116% | viability, T/C [20]: 107% | viability, T/C [21]: 115% | viability, T/C [22]: 112% | viability, T/C [23]: 100% | viability, T/C [24]: 93.8% | viability, T/C [25]: 118% | viability, T/C [26]: 107% | viability, T/C [27]: 112% | viability, T/C [28]: 116% | viability, T/C [29]: 106% | viability, T/C [30]: 92.5% | viability, T/C [31]: 120% | viability, T/C [32]: 103% | viability, T/C [33]: 101% | viability, T/C [34]: 107% | viability, T/C [35]: 101% | viability, T/C [36]: 84.9%
